Measurements as given in publication PMC10052868 (European journal of medicinal chemistry, 2022).
“Also recorded” adds a separate entry of the source. Where a name gives a salt, the structure may show the parent alone.

How the values were obtained:
PfPK6 = PfPK6 (Plasmodium falciparum, UniProt Q8IDW1); assay: KinaseSeeker split-luciferase assay on PfPK6; format: binding, P. falciparum; conditions: for fold drop in potency against PfPK6 relative to Ki8751 / fold increase in potency against PfPK6 compared to Ki8751: compared to Ki8751; for activity against PfPK6 in words: KinaseSeeker, 1 μM; for remaining activity at 1 µM: read-out: PfPK6 activity remaining at 1 μM (%)
P. falciparum 3D7 = assay: P. falciparum asexual blood stage viability assay; format: cell-based; conditions: Inactive = no inhibition when tested in triplicate at a single concentration of 1 μM

## COc1ccc2c(Oc3ccc(NC(=O)Nc4ccc(F)cc4F)c(F)c3)ccnc2c1 [Compound 1, 1-(2,4-difluorophenyl)-3-(2-fluoro-4-((7-methoxyquinolin-4-yl)oxy)phenyl)urea]
PfPK6
  fold drop in potency against PfPK6 relative to Ki8751: 3 fold

## COc1ccc2nccc(Oc3ccc(NC(=O)Nc4ccc(F)cc4F)c(F)c3)c2c1 [Compound 2, 1-(2,4-difluorophenyl)-3-(2-fluoro-4-((6-methoxyquinolin-4-yl)oxy)phenyl)urea]
PfPK6
  fold drop in potency against PfPK6 relative to Ki8751: 15 fold

## O=C(Nc1ccc(F)cc1F)Nc1ccc(Oc2ccnc3ccccc23)cc1F [Compound 3, 1-(2,4-difluorophenyl)-3-(2-fluoro-4-(quinolin-4-yloxy)phenyl)urea]
PfPK6
  fold drop in potency against PfPK6 relative to Ki8751: 34 fold

## O=C(Nc1ccc(O)cc1F)Nc1ccc(F)cc1F [Compound 5, 1-(2,4-difluorophenyl)-3-(2-fluoro-4-hydroxyphenyl)urea]
PfPK6
  activity against PfPK6 in words: completely inactive
  remaining activity at 1 µM: 100%

## COc1ccc(NC(=O)Nc2ccc(F)cc2F)c(F)c1 [Compound 6, 1-(2,4-difluorophenyl)-3-(2-fluoro-4-methoxyphenyl)urea]
PfPK6
  activity against PfPK6 in words: completely inactive
  remaining activity at 1 µM: 100%

## COc1cc2nccc(Oc3ccc(NC(=O)Nc4ccccc4F)c(F)c3)c2cc1OC [Compound 7, 1-(4-((6,7-dimethoxyquinolin-4-yl)oxy)-2-fluorophenyl)-3-(2-fluorophenyl)urea]
PfPK6
  fold increase in potency against PfPK6 compared to Ki8751: ≥ 3 fold

## COc1cc2nccc(Oc3ccc(NC(=O)Nc4ccc(F)cc4)c(F)c3)c2cc1OC [Compound 8, 1-(4-((6,7-dimethoxyquinolin-4-yl)oxy)-2-fluorophenyl)-3-(4-fluorophenyl)urea]
PfPK6
  fold increase in potency against PfPK6 compared to Ki8751: ≥ 3 fold

## COc1cc2nccc(Oc3ccc(NC(=O)Nc4ccccc4)c(F)c3)c2cc1OC [Compound 9, 1-(4-((6,7-dimethoxyquinolin-4-yl)oxy)-2-fluorophenyl)-3-phenylurea]
PfPK6
  fold increase in potency against PfPK6 compared to Ki8751: ≥ 3 fold

## COc1cc2nccc(Oc3ccc(N)c(F)c3)c2cc1OC [Compound 14, 4-((6,7-dimethoxyquinolin-4-yl)oxy)-2-fluoroaniline]
PfPK6
  activity against PfPK6 in words: complete loss of activity
  remaining activity at 1 µM: 100%

## COc1cc2nccc(Oc3ccc(N)cc3)c2cc1OC [Compound 15, 4-((6,7-dimethoxyquinolin-4-yl)oxy)aniline]
PfPK6
  activity against PfPK6 in words: complete loss of activity

## O=C(Nc1ccc(F)cc1F)Nc1ccc(Oc2cnnc3ccccc23)cc1F [Compound 24, 1-(4-(cinnolin-4-yloxy)-2-fluorophenyl)-3-(2,4-difluorophenyl)urea]
PfPK6
  activity against PfPK6 in words: complete loss of potency
  remaining activity at 1 µM: 100%

## O=C(Nc1ccc(F)cc1F)Nc1ccc(Oc2ccnc3[nH]ccc23)cc1F [Compound 29, 1-(4-((1H-pyrrolo[2,3-b]pyridin-4-yl)oxy)-2-fluorophenyl)-3-(2,4-difluorophenyl)urea]
PfPK6; compared to quinoline 3
  fold improvement in PfPK6 potency on replacing the quinoline: 4 fold

## COc1cc2nccc(Oc3ccc(NC(=O)Nc4cccc(C(F)(F)F)c4)c(F)c3)c2cc1OC [Compound 39, 1-(4-((6,7-dimethoxyquinolin-4-yl)oxy)-2-fluorophenyl)-3-(3-(trifluoromethyl)phenyl)urea]
PfPK6
  IC50: < 5 nM

## COc1cc2nccc(Oc3ccc(NC(=O)Nc4cccc(CN5CCN(C)CC5)c4)c(F)c3)c2cc1OC [Compound 42, 1-(4-((6,7-dimethoxyquinolin-4-yl)oxy)-2-fluorophenyl)-3-(3-((4-methylpiperazin-1-yl)methyl)phenyl)urea diformate]
P. falciparum 3D7
  Pf3D7 blood stage activity at single concentration: loss of P. falciparum blood stage activity; also recorded: Inactive^e

## COc1cc2nccc(Oc3ccc(NC(=O)Nc4ccc(C(=O)N5CCN(C)CC5)cc4)c(F)c3)c2cc1OC [Compound 43, 1-(4-((6,7-dimethoxyquinolin-4-yl)oxy)-2-fluorophenyl)-3-(4-(4-methylpiperazine-1-carbonyl)phenyl)urea]
P. falciparum 3D7
  Pf3D7 blood stage activity at single concentration: did not observe antiplasmodial activity; also recorded: Inactive^e

## COc1cc2nccc(Oc3ccc(NC(=O)Nc4cccc(C(=O)N5CCN(C)CC5)c4)c(F)c3)c2cc1OC [Compound 44, 1-(4-((6,7-dimethoxyquinolin-4-yl)oxy)-2-fluorophenyl)-3-(3-(4-methylpiperazine-1-carbonyl)phenyl)urea]
P. falciparum 3D7
  Pf3D7 blood stage activity at single concentration: did not observe antiplasmodial activity; also recorded: Inactive^e

## COc1cc2nccc(Oc3ccc(NC(=O)Nc4ccc(C(=O)N5CCN(C)CC5)c(C(F)(F)F)c4)c(F)c3)c2cc1OC [Compound 47, 1-(4-((6,7-dimethoxyquinolin-4-yl)oxy)-2-fluorophenyl)-3-(4-(4-methylpiperazine-1-carbonyl)-3-(trifluoromethyl)phenyl)urea]
P. falciparum 3D7
  Pf3D7 blood stage activity at single concentration: Inactive^e

## COc1cc2nccc(Oc3ccc(NC(=O)Nc4cc(C(=O)N5CCN(C)CC5)cc(C(F)(F)F)c4)c(F)c3)c2cc1OC [Compound 48, 1-(4-((6,7-dimethoxyquinolin-4-yl)oxy)-2-fluorophenyl)-3-(3-(4-methylpiperazine-1-carbonyl)-5-(trifluoromethyl)phenyl)urea formate]
P. falciparum 3D7
  Pf3D7 blood stage activity at single concentration: Inactive^e

## COc1cc2nccc(Oc3ccc(NC(=O)Nc4cccc(Br)c4)c(F)c3)c2cc1OC [Compound 50, 1-(3-bromophenyl)-3-(4-((6,7-dimethoxyquinolin-4-yl)oxy)-2-fluorophenyl)urea]
P. falciparum 3D7
  Pf3D7 blood stage activity at single concentration: Inactive^d

## COc1cc2nccc(Oc3ccc(NC(=O)Nc4cccc(C(C)C)c4)c(F)c3)c2cc1OC [Compound 52, 1-(4-((6,7-dimethoxyquinolin-4-yl)oxy)-2-fluorophenyl)-3-(3-isopropylphenyl)urea]
P. falciparum 3D7
  Pf3D7 blood stage activity at single concentration: Inactive^d

## COc1cccc(NC(=O)Nc2ccc(Oc3ccnc4cc(OC)c(OC)cc34)cc2F)c1 [Compound 54, 1-(4-((6,7-dimethoxyquinolin-4-yl)oxy)-2-fluorophenyl)-3-(3-methoxyphenyl)urea]
P. falciparum 3D7
  Pf3D7 blood stage activity at single concentration: Inactive^d

## COc1cc2nccc(Oc3ccc(NC(=O)Nc4cccc(OC(C)C)c4)c(F)c3)c2cc1OC [Compound 55, 1-(4-((6,7-dimethoxyquinolin-4-yl)oxy)-2-fluorophenyl)-3-(3-isopropoxyphenyl)urea]
P. falciparum 3D7
  Pf3D7 blood stage activity at single concentration: Inactive^d

## COc1cc2nccc(Oc3ccc(NC(=O)Nc4cccc(OC(F)F)c4)c(F)c3)c2cc1OC [Compound 56, 1-(3-(difluoromethoxy)phenyl)-3-(4-((6,7-dimethoxyquinolin-4-yl)oxy)-2-fluorophenyl)urea]
P. falciparum 3D7
  Pf3D7 blood stage activity at single concentration: Inactive^d

## COc1cc2nccc(Oc3ccc(NC(=O)Nc4ccc(N5CCN(C)CC5)cc4)c(F)c3)c2cc1OC [Compound 59, 1-(4-((6,7-dimethoxyquinolin-4-yl)oxy)-2-fluorophenyl)-3-(4-(4-methylpiperazin-1-yl)phenyl)urea]
PfPK6
  fold drop in activity against PfPK6 compared to 41: 30 fold

## COc1cc2nccc(Oc3ccc(NC(=O)Nc4ccc(NC5CCN(C)CC5)cc4)c(F)c3)c2cc1OC [Compound 65, 1-(4-((6,7-dimethoxyquinolin-4-yl)oxy)-2-fluorophenyl)-3-(4-((1-methylpiperidin-4-yl)amino)phenyl)urea]
PfPK6
  fold drop in activity against PfPK6 compared to 41: 12 fold
